Source: ChEMBL document CHEMBL5346863, “Discovery of substituted benzyloxy-benzylamine inhibitors of acetyltransferase Eis and their anti-mycobacterial activity” (Eur J Med Chem, 2022)
Values after ≈ are worked out from the molar mass of the structure shown. Active and inactive are the calls of the source. No cut-off for these calls is given here.

Columns and labels:
N-acetyltransferase Eis [1] = target: T1, N-acetyltransferase Eis (Mycobacterium tuberculosis (strain ATCC 25618 / H37Rv), UniProt P9WFK7); experiment: Inhibition of wild-type Mycobacterium tuberculosis Eis expressed in Escherichia coli BL21(DE3) cells incubated for 5 mins by Ellman's method
T1 sequence (P9WFK7 whole entry): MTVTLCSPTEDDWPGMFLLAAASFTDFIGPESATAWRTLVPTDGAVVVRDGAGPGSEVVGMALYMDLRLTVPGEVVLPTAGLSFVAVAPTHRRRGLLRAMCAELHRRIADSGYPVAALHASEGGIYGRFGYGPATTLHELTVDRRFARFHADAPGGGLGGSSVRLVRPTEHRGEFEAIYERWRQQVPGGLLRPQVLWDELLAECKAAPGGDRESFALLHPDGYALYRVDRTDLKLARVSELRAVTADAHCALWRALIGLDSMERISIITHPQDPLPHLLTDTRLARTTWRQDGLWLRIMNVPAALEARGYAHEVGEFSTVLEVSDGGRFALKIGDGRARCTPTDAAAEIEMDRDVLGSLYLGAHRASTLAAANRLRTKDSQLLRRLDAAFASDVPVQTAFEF

[2] = test system: Mycobacterium tuberculosis; experiment: Antibacterial activity against Mycobacterium tuberculosis H37Ra assessed as bacterial growth inhibition incubated 2 to 3 weeks by resazurin dye based assay; format: functional; conditions: time 2-3 weeks
[3] = test system: Mycobacterium tuberculosis; experiment: Antibacterial activity against Mycobacterium tuberculosis H37Rv assessed as MIC of kanamycin A at 19.7 uM incubated for 24 hrs followed by kanamycin A addition measured after 6 days by alamarblue dye based assay; format: functional; conditions: 168 h, time 7 day
[4] = test system: Mycobacterium tuberculosis; experiment: Antibacterial activity against Mycobacterium tuberculosis mc2 6230 assessed as bacterial growth inhibition incubated 2 to 3 weeks by resazurin dye based assay; format: functional; conditions: time 2-3 weeks
[5] = test system: Mycobacteroides abscessus; experiment: Antibacterial activity against Mycobacterium abscessus ATCC 19977 assessed as bacterial growth inhibition incubated for 2 to 3 weeks by resazurin dye based assay; format: functional; conditions: time 2-3 weeks
Mycobacterium avium = experiment: Antibacterial activity against Mycobacterium avium ATCC 25291 assessed as bacterial growth inhibition incubated for 2 to 3 weeks by resazurin dye based assay; format: functional; conditions: time 2-3 weeks
[6] = test system: Mycobacterium intracellulare; experiment: Antibacterial activity against Mycobacterium intracellulare ATCC 13950 assessed as bacterial growth inhibition incubated for 2 to 3 weeks by resazurin dye based assay; format: functional; conditions: time 2-3 weeks
[7] = test system: Mycobacterium tuberculosis; experiment: Antibacterial activity against Mycobacterium tuberculosis H37Rv assessed as MIC of kanamycin A at 5 uM incubated for 24 hrs followed by kanamycin A addition measured after 6 days by alamarblue dye based assay; format: functional; conditions: 168 h, time 7 day
[8] = test system: Mycolicibacterium smegmatis; experiment: Antibacterial activity against Mycobacterium smegmatis mc2 122 assessed as bacterial growth inhibition incubated for 2 to 3 weeks by resazurin dye based assay; format: functional; conditions: time 2-3 weeks
[9] = test system: Mycobacterium parascrofulaceum; experiment: Antibacterial activity against Mycobacterium parascrofulaceum ATCC BAA-614 assessed as bacterial growth inhibition incubated for 2 to 3 weeks by resazurin dye based assay; format: functional; conditions: time 2-3 weeks
[10] = test system: Mycobacterium tuberculosis; experiment: Antibacterial activity against Mycobacterium tuberculosis H37Rv assessed as MIC of kanamycin A at 43.8 uM incubated for 24 hrs followed by kanamycin A addition measured after 6 days by alamarblue dye based assay; format: functional; conditions: 168 h, time 7 day
[11] = test system: Mycobacterium tuberculosis; experiment: Antibacterial activity against Mycobacterium tuberculosis H37Rv assessed as MIC of kanamycin A at 100 uM incubated for 24 hrs followed by kanamycin A addition measured after 6 days by alamarblue dye based assay; format: functional; conditions: time 7.0 day
[12] = test system: Mycobacterium tuberculosis; experiment: Antibacterial activity against Mycobacterium tuberculosis mc2 6230 assessed as MIC of kanamycin A at 6.25 uM incubated for 24 hrs followed by kanamycin A addition measured after 6 days by alamarblue dye based assay; format: functional; conditions: mc2 6230, 168 h, time 7 day
[13] = test system: Mycobacterium tuberculosis; experiment: Antibacterial activity against Mycobacterium tuberculosis mc2 6230 K204 assessed as MIC of kanamycin A at 6.25 uM incubated for 24 hrs followed by kanamycin A addition measured after 6 days by alamarblue dye based assay; format: functional; conditions: mc2 6230 K204, 168 h, time 7 day
A549 [14] = experiment: Cytotoxicity against human A549 cells upto 12.5 uM incubated for 24 hrs by resazurin dye based cell viability assay; format: toxicity; conditions: a549, 24 h
HEK293 [15] = experiment: Cytotoxicity against HEK293 cells upto 12.5 uM incubated for 24 hrs by resazurin dye based cell viability assay; format: toxicity; conditions: human, hek293, 24 h
J774.1 [16] = experiment: Cytotoxicity against mouse J774.1 cells upto 12.5 uM incubated for 24 hrs by resazurin dye based cell viability assay; format: toxicity; conditions: j774.1, 24 h
HEK293 [17] = experiment: Cytotoxicity against HEK293 cells <=50 uM incubated for 24 hrs by resazurin dye based cell viability assay; format: toxicity; conditions: human, hek293, 24 h
J774.1 [18] = experiment: Cytotoxicity against mouse J774.1 cells <=50 uM incubated for 24 hrs by resazurin dye based cell viability assay; format: toxicity; conditions: j774.1, 24 h
A549 [19] = experiment: Cytotoxicity against human A549 cells upto 50 uM incubated for 24 hrs by resazurin dye based cell viability assay; format: toxicity; conditions: a549, 24 h
[20] = test system: Mycobacterium tuberculosis; experiment: Antibacterial activity against Mycobacterium tuberculosis H37Rv assessed as MIC of kanamycin A at 55.8 uM incubated for 24 hrs followed by kanamycin A addition measured after 6 days by alamarblue dye based assay; format: functional; conditions: 168 h, time 7 day
[21] = test system: Mycobacterium tuberculosis; experiment: Antibacterial activity against Mycobacterium tuberculosis K204 assessed as MIC of kanamycin A at 55.8 uM incubated for 24 hrs followed by kanamycin A addition measured after 6 days by alamarblue dye based assay; format: functional; conditions: K204, 168 h, time 7 day
[22] = test system: Mycobacterium tuberculosis; experiment: Antibacterial activity against Mycobacterium tuberculosis mc2 6230 assessed as MIC of kanamycin A at 25 uM incubated for 24 hrs followed by kanamycin A addition measured after 6 days by alamarblue dye based assay; format: functional; conditions: mc2 6230, 168 h, time 7 day
[23] = test system: Mycobacterium tuberculosis; experiment: Antibacterial activity against Mycobacterium tuberculosis mc2 6230 K204 assessed as MIC of kanamycin A at 25 uM incubated for 24 hrs followed by kanamycin A addition measured after 6 days by alamarblue dye based assay; format: functional; conditions: time 7 day
N-acetyltransferase Eis [24] = target: T1, N-acetyltransferase Eis; experiment: Binding affinity to wild-type Mycobacterium tuberculosis Eis expressed in Escherichia coli BL21(DE3) cells assessed as inhibition constant incubated for 5 mins by Ellman's method based Michaelis-Menten analysis
[25] = test system: Mycobacterium tuberculosis; experiment: Antibacterial activity against Mycobacterium tuberculosis H37Rv assessed as MIC of kanamycin A at 27.5 uM incubated for 24 hrs followed by kanamycin A addition measured after 6 days by alamarblue dye based assay; format: functional; conditions: 168 h, time 7 day

Fc1ccc(COc2ccc(CNCc3ccncc3)cc2)cc1
IC50 (N-acetyltransferase Eis [1]): ~1600 nM
MIC [2]: 7.8 µM (≈ 2.51 µg/mL)
MIC [3]: ≤ 1.25 µg/mL
MIC [4]: 50 µM (≈ 16.1 µg/mL)
MIC [5]: > 62.5 µM
MIC (Mycobacterium avium): > 62.5 µM
MIC [6]: 15.6 µM (≈ 5.03 µg/mL)

Clc1cccc(COc2ccccc2CNCc2ccncc2)c1
IC50 (N-acetyltransferase Eis [1]): 8900 nM
MIC [2]: 62.5 µM (≈ 21.2 µg/mL)
MIC [7]: 2.5 µg/mL
MIC [4]: 100 µM (≈ 33.9 µg/mL)
MIC [8]: > 62.5 µM
MIC [5]: > 62.5 µM
MIC (Mycobacterium avium): > 62.5 µM
MIC [6]: > 62.5 µM
MIC [9]: 31.3 µM (≈ 10.6 µg/mL)

Fc1ccc(COc2ccccc2CNCc2ccncc2)cc1
IC50 (N-acetyltransferase Eis [1]): ~100000 nM
MIC [2]: > 250 µM
MIC [10]: 2.5 µg/mL
MIC [4]: 50 µM (≈ 16.1 µg/mL)

Clc1ccc(COc2ccc(CNCc3ccccc3)cc2)cc1
IC50 (N-acetyltransferase Eis [1]): > 200000 nM
MIC [2]: 3.9 µM (≈ 1.32 µg/mL)
Activity [11]: Active
MIC [4]: 12.5 µM (≈ 4.22 µg/mL)
MIC [12]: < 1.25 µM
MIC [13]: < 1.25 µM
MIC [8]: 15.6 µM (≈ 5.27 µg/mL)
MIC [5]: 31.3 µM (≈ 10.6 µg/mL)
MIC (Mycobacterium avium): 62.5 µM (≈ 21.1 µg/mL)
MIC [9]: 15.6 µM (≈ 5.27 µg/mL)
Activity (A549 [14]): Non-Toxic
Activity (HEK293 [15]): Non-Toxic
Activity (J774.1 [16]): Non-Toxic
Activity (HEK293 [17]): Non-Toxic
Activity (J774.1 [18]): Non-Toxic
Activity (A549 [19]): Non-Toxic

Clc1ccc(COc2ccccc2CNCc2ccncc2)cc1
IC50 (N-acetyltransferase Eis [1]): 1400 nM
MIC [2]: 31.3 µM (≈ 10.6 µg/mL)
MIC [20]: < 1.25 µg/mL
MIC [21]: > 10 µg/mL
MIC [4]: 50 µM (≈ 16.9 µg/mL)
MIC [22]: < 1.25 µM
MIC [23]: >10 µM
Ki (N-acetyltransferase Eis [24]): 1040 nM
MIC [5]: 31.3 µM (≈ 10.6 µg/mL)
MIC (Mycobacterium avium): > 62.5 µM
MIC [6]: 31.3 µM (≈ 10.6 µg/mL)
MIC [9]: > 62.5 µM

Clc1ccc(COc2ccc(CNCc3cccnc3)cc2)cc1
IC50 (N-acetyltransferase Eis [1]): 2900 nM
MIC [2]: 31.3 µM (≈ 10.6 µg/mL)
MIC [25]: ≤ 1.25 µg/mL
MIC [4]: 50 µM (≈ 16.9 µg/mL)
MIC [22]: < 1.25 µM
MIC ([23]; Mycobacterium tuberculosis, mc2 6230 K204, 168 h, read-out: MIC): ≤ 1.25 µM
MIC [5]: > 62.5 µM
MIC (Mycobacterium avium): > 62.5 µM
MIC [6]: 15.6 µM (≈ 5.29 µg/mL)
